From PMC9635829 (Science Advances, 2022) come the findings set out here.

Experiment [1] concerns the target adenylate kinase from Odinarchaeota (OdinAK), wild type (Odinarchaeota). In words: SEC-MALS. A general note: In gel filtration, larger molecules generally elute earlier.
Experiment [2] addresses T1, OdinAK (AdkA1) (Candidatus Odinarchaeum yellowstonii, UniProt A0AAF0D2B2).
T1 sequence (A0AAF0D2B2 1-198): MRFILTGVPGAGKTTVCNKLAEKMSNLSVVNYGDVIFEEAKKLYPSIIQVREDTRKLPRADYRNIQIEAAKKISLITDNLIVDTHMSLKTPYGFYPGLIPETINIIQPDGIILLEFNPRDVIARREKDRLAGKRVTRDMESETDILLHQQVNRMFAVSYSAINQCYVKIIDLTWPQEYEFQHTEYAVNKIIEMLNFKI
In words: ITC. The class given is binding.

Experiment [3] deals with T1, OdinAK (AdkA1). The experiment can be described thus: […] real-time NMR. The experiment is classed as biochemical. The settings on record: 65 °C, 1 mM ATP (or other NTP), 300 μM AMP, 5 mM MgCl2, pH 7.0.
The target in experiment [4] is T1, OdinAK (AdkA1). In words: X-ray crystal structure. The class given is binding. The note with it: ATP/AMP-mimicking inhibitor, spans both substrate sites.

“adenylate kinase from Odinarchaeota (OdinAK), wild type (enzyme)”: the stoichiometry N (in general, the number of molecules, sites or subunits per partner or assembly) in experiment [1] is 3.

On to `Nc1ccn([C@@H]2O[C@H](COP(=O)(O)OP(=O)(O)OP(=O)(O)O)[C@@H](O)[C@H]2O)c(=O)n1` [CTP], for which, on OdinAK (AdkA1) [2], the Kd (in general, the constant that tells how readily two partners part at equilibrium) came to 28.7 ± 7 µM.

`Nc1ncnc2c1ncn2[C@@H]1O[C@H](COP(=O)(O)O)[C@@H](O)[C@H]1O` [AMP]: on OdinAK (AdkA1) [3], the “31P real-time NMR” value was “OdinAK can use GTP and all other NTPs as substrate for phosphorylation of AMP”.

Turning to `O=c1ccn([C@@H]2O[C@H](COP(=O)(O)OP(=O)(O)OP(=O)(O)O)[C@@H](O)[C@H]2O)c(=O)[nH]1` [UTP], binding on OdinAK (AdkA1) [2] was characterised by a dissociation constant (Kd) of 4.6 ± 0.5 µM.

Take `Nc1nc2c(ncn2[C@@H]2O[C@H](COP(=O)(O)OP(=O)(O)OP(=O)(O)O)[C@@H](O)[C@H]2O)c(=O)[nH]1` [GTP]: the equilibrium dissociation constant (Kd) at OdinAK (AdkA1) [2] amounted to 7.2 ± 0.6 µM.

Consider `Nc1ncnc2c1ncn2[C@@H]1O[C@H](COP(=O)(O)OP(=O)(O)OP(=O)(O)OP(=O)(O)OP(=O)(O)OC[C@H]2O[C@@H](n3cnc4c(N)ncnc43)[C@H](O)[C@@H]2O)[C@@H](O)[C@H]1O` [Ap5A, P^1,P^5-di(adenosine-5′) pentaphosphate], for which the X-ray crystal structure result on OdinAK (AdkA1) [4] is listed as “we determined the crystal structure of the enzyme in complex with the tight binding”.

The compound `Nc1ncnc2c1ncn2[C@@H]1O[C@H](COP(=O)(O)OP(=O)(O)OP(=O)(O)O)[C@@H](O)[C@H]1O` [ATP] displayed a Kd at OdinAK (AdkA1) [2] of 0.3 ± 0.1 µM.

As to `Cc1cn([C@H]2C[C@H](O)[C@@H](COP(=O)(O)OP(=O)(O)OP(=O)(O)O)O2)c(=O)[nH]c1=O` [dTTP], the Kd on OdinAK (AdkA1) [2] stood at 24.2 ± 8 µM.

On OdinAK (AdkA1) [2], `Nc1ncnc2c1ncn2[C@@H]1O[C@H](COP(=O)(O)OP(=O)(O)O)[C@@H](O)[C@H]1O` [ADP] had a Kd of 0.8 ± 0.1 µM.
